Measurements taken from ChEMBL document CHEMBL3526096, “Species differences in biliary clearance and possible relevance of hepatic uptake and efflux transporters involvement” (Drug Metab Dispos, 2013).

What was measured:
[1] = test system: Homo sapiens; assay: Total biliary clearance in iv dosed human after 24 hrs by T-tube method; format: ADME, organism-based, Bile; details: in vivo
[2] = test system: Homo sapiens; assay: Unbound biliary clearance in iv dosed human after 24 hrs by T-tube method; format: ADME, organism-based, Bile; details: in vivo
[3] = test system: Rattus norvegicus; assay: Total biliary clearance in Sprague-Dawley rat at 5 mg/kg, iv; format: ADME, organism-based, Bile; parameters: dose 5 mg/kg, route intravenous; details: in vivo
[4] = test system: Rattus norvegicus; assay: Unbound biliary clearance in Sprague-Dawley rat at 5 mg/kg, iv; format: ADME, organism-based, Bile; parameters: dose 5 mg/kg, route intravenous; details: in vivo
[5] = test system: Canis familiaris; assay: Total biliary clearance in iv dosed dog; format: ADME, organism-based, Canis lupus familiaris, Bile; details: in vivo
[6] = test system: Canis familiaris; assay: Unbound biliary clearance in iv dosed dog; format: ADME, organism-based, Canis lupus familiaris, Bile; details: in vivo
[7] = Drug excretion in Sprague-Dawley rat assessed as compound excreted into bile at 5 mg/kg, iv; format: ADME, organism-based; parameters: dose 5 mg/kg, route intravenous; details: read-out: Drug excretion
[8] = Drug excretion in iv dosed dog assessed as compound excreted into bile; format: ADME, organism-based, Canis lupus familiaris; details: read-out: Drug excretion
[9] = Drug excretion in iv dosed human assessed as compound excreted into bile after 24 hrs by T-tube method; format: ADME, organism-based; details: read-out: Drug excretion
[10] = test system: Homo sapiens; assay: Total biliary clearance in iv dosed human after 20 hrs by duodenal aspiration method; format: ADME, organism-based, Bile; details: in vivo
[11] = test system: Homo sapiens; assay: Unbound biliary clearance in iv dosed human after 20 hrs; format: ADME, organism-based, Bile; details: in vivo
[12] = test system: Rattus norvegicus; assay: Total biliary clearance in Wistar rat at 10 mg/kg, iv; format: ADME, organism-based, Bile; parameters: dose 10 mg/kg, route intravenous; details: in vivo
[13] = test system: Rattus norvegicus; assay: Unbound biliary clearance in Wistar rat at 10 mg/kg, iv; format: ADME, organism-based, Bile; parameters: dose 10 mg/kg, route intravenous; details: in vivo
[14] = Drug excretion in Wistar rat assessed as compound excreted into bile at 10 mg/kg, iv; format: ADME, organism-based; parameters: dose 10 mg/kg, route intravenous; details: read-out: Drug excretion
[15] = Drug excretion in iv dosed human assessed as compound excreted into bile after 20 hrs; format: ADME, organism-based; details: read-out: Drug excretion
[16] = Drug excretion in iv dosed Wistar rat assessed as compound excreted into bile; format: ADME, organism-based; details: read-out: Drug excretion
[17] = Drug excretion in human assessed as compound excreted into bile at 60 mg, po after 12 hrs by fecal extraction method
[18] = Drug excretion in iv dosed rat assessed as compound excreted into bile; format: ADME, organism-based; details: read-out: Drug excretion
[19] = Drug excretion in po dosed human assessed as compound excreted into bile after 24 hrs by T-tube method; format: ADME, organism-based; details: read-out: Drug excretion
[20] = test system: Rattus norvegicus; assay: Total biliary clearance in iv dosed rat; format: ADME, organism-based, Bile; details: in vivo
[21] = test system: Rattus norvegicus; assay: Unbound biliary clearance in iv dosed rat; format: ADME, organism-based, Bile; details: in vivo
[22] = test system: Rattus norvegicus; assay: Total biliary clearance in Sprague-Dawley rat at 300 mg/kg, iv; format: ADME, organism-based, Bile; parameters: dose 300 mg/kg, route intravenous; details: in vivo
[23] = test system: Homo sapiens; assay: Total biliary clearance in human at 1 gm, iv after 8 hrs by T-tube method; format: ADME, organism-based, Bile; details: in vivo
[24] = test system: Homo sapiens; assay: Unbound biliary clearance in human at 1 gm, iv after 8 hrs by T-tube method; format: ADME, organism-based, Bile; details: in vivo
[25] = test system: Rattus norvegicus; assay: Unbound biliary clearance in Sprague-Dawley rat at 300 mg/kg, iv; format: ADME, organism-based, Bile; parameters: dose 300 mg/kg, route intravenous; details: in vivo
[26] = Drug excretion in Sprague-Dawley rat assessed as compound excreted into bile at 300 mg/kg, iv; format: ADME, organism-based; parameters: dose 300 mg/kg, route intravenous; details: read-out: Drug excretion
[27] = Drug excretion in human assessed as compound excreted into bile at 1 gm, iv after 8 hrs by T-tube method; format: ADME, organism-based; details: read-out: Drug excretion
[28] = Drug excretion in human assessed as compound excreted into bile; format: ADME; details: read-out: Drug excretion
[29] = Drug excretion in human assessed as compound excreted into bile at 50 mg, iv after 24 hrs by T-tube method; format: ADME, organism-based; details: read-out: Drug excretion
[30] = test system: Rattus norvegicus; assay: Total biliary clearance in iv dosed Sprague-Dawley rat; format: ADME, organism-based, Bile; details: in vivo
[31] = test system: Homo sapiens; assay: Total biliary clearance in iv dosed human after 72 hrs by T-tube method; format: ADME, organism-based, Bile; details: in vivo
[32] = test system: Homo sapiens; assay: Unbound biliary clearance in iv dosed human after 72 hrs by T-tube method; format: ADME, organism-based, Bile; details: in vivo
[33] = test system: Rattus norvegicus; assay: Unbound biliary clearance in iv dosed Sprague-Dawley rat; format: ADME, organism-based, Bile; details: in vivo
[34] = Drug excretion in iv dosed Sprague-Dawley rat assessed as compound excreted into bile; format: ADME, organism-based; details: read-out: Drug excretion
[35] = Drug excretion in iv dosed human assessed as compound excreted into bile after 72 hrs by T-tube method; format: ADME, organism-based; details: read-out: Drug excretion

Q: For `COc1cccc2c1C(=O)c1c(O)c3c(c(O)c1C2=O)C[C@@](O)(C(=O)CO)C[C@@H]3O[C@H]1C[C@H](N)[C@H](O)[C@H](C)O1` [DOXORUBICIN], which CL [1] is on record?
A: 2.035 mL/min/kg

Q: What about the CL free [2] of the same compound?
A: 7.268 mL/min/kg

Q: What about the CL [3] of the same compound?
A: 3.68 mL/min/kg

Q: And the CL free [4]?
A: 10.82 mL/min/kg

Q: What about the CL [5] of the same compound?
A: 1.72 mL/min/kg

Q: What about the CL free [6] of the same compound?
A: 5.059 mL/min/kg

Q: And the dose excreted [7]?
A: 17%

Q: And the dose excreted [8]?
A: 10%

Q: And the dose excreted at 24 h [9]?
A: 14%

Q: For `CC[C@H]1OC(=O)[C@H](C)[C@@H](O[C@H]2C[C@@](C)(OC)[C@@H](O)[C@H](C)O2)[C@H](C)[C@@H](O[C@@H]2O[C@H](C)C[C@H](N(C)C)[C@H]2O)[C@](C)(O)C[C@@H](C)C(=O)[C@H](C)[C@@H](O)[C@]1(C)O` [ERYTHROMYCIN], which CL [10] is on record?
A: 1.147 mL/min/kg

Q: What about the CL free [11] of the same compound?
A: 7.169 mL/min/kg

Q: And the CL [12]?
A: 17.4 mL/min/kg

Q: And the CL free [13]?
A: 22.38 mL/min/kg

Q: What about the CL [5] of the same compound?
A: 2.376 mL/min/kg

Q: What about the CL free [6] of the same compound?
A: 4.483 mL/min/kg

Q: What about the dose excreted [14] of the same compound?
A: 30%

Q: And the dose excreted [8]?
A: 5%

Q: And the dose excreted at 20 h [15]?
A: 13%

Q: For `CC(C)(C(=O)O)c1ccc(C(O)CCCN2CCC(C(O)(c3ccccc3)c3ccccc3)CC2)cc1` (stereo not drawn) [FEXOFENADINE], which dose excreted [16] is on record?
A: 28%

Q: What about the dose excreted at 12 h [17] of the same compound?
A: 23%

Q: With `CCC(=O)C(CC(C)N(C)C)(c1ccccc1)c1ccccc1` (stereo not drawn) [METHADONE] as the compound, how does the dose excreted [18] read?
A: 9%

Q: What about the dose excreted at 24 h [19] of the same compound?
A: 0.06%

Q: For `CN(Cc1cnc2nc(N)nc(N)c2n1)c1ccc(C(=O)N[C@@H](CCC(=O)O)C(=O)O)cc1` [METHOTREXATE], which CL [1] is on record?
A: 0.048 mL/min/kg

Q: And the CL free [2]?
A: 1.108 mL/min/kg

Q: What about the CL [20] of the same compound?
A: 9.6 mL/min/kg

Q: And the CL free [21]?
A: 12.47 mL/min/kg

Q: What about the CL [5] of the same compound?
A: 0.217 mL/min/kg

Q: And the CL free [6]?
A: 0.344 mL/min/kg

Q: And the dose excreted [18]?
A: 64%

Q: And the dose excreted at 24 h [9]?
A: 10%

Q: Which results are given for `CO[C@@]1(NC(=O)C(C(=O)O)c2ccc(O)cc2)C(=O)N2C(C(=O)O)=C(CSc3nnnn3C)CO[C@@H]21` (stereo partly drawn) [MOXALACTAM]?
A: CL [22]: 2.19 mL/min/kg; CL [23]: 4.3 mL/day/kg; CL free [24]: 12 mL/day/kg; CL free [25]: 4.294 mL/min/kg; dose excreted [26]: 25%; dose excreted at 8 h [27]: 0.5%

Q: With `N=C(N)N1CCC[C@@H](CNC(=O)C[C@H](NS(=O)(=O)c2ccc3ccccc3c2)C(=O)N(CC(=O)O)C2CC2)C1` [NAPSAGATRAN ANHYDROUS] as the compound, how does the dose excreted [18] read?
A: 61%

Q: What about the dose excreted [8] of the same compound?
A: 97%

Q: And the dose excreted [28]?
A: 60%

Q: For `CC[C@H](C)C(=O)O[C@H]1C[C@H](O)C=C2C=C[C@H](C)[C@H](CC[C@@H](O)C[C@@H](O)CC(=O)O)[C@H]21` [PRAVASTATIN], which CL [1] is on record?
A: 3.105 mL/min/kg

Q: What about the CL free [2] of the same compound?
A: 6.21 mL/min/kg

Q: And the CL [20]?
A: 27.5 mL/min/kg

Q: And the CL free [21]?
A: 78.57 mL/min/kg

Q: And the dose excreted [18]?
A: 40%

Q: And the dose excreted at 24 h [9]?
A: 23%

Q: For `CNC(=C[N+](=O)[O-])NCCSCc1ccc(CN(C)C)o1` [RANITIDINE], which dose excreted [18] is on record?
A: 5%

Q: And the dose excreted at 24 h [29]?
A: 1.5%

Q: What does the source list for `CC[C@]1(O)C[C@H]2CN(CCc3c([nH]c4ccccc34)[C@@](C(=O)OC)(c3cc4c(cc3OC)N(C=O)[C@H]3[C@@](O)(C(=O)OC)[C@H](OC(C)=O)[C@]5(CC)C=CCN6CC[C@]43[C@@H]65)C2)C1` [VINCRISTINE]?
A: CL [30]: 33.1 mL/min/kg; CL [31]: 0.209 mL/min/kg; CL free [32]: 0.523 mL/min/kg; CL free [33]: 84.87 mL/min/kg; dose excreted [34]: 43%; dose excreted at 72 h [35]: 10%
